This experiment has as its system PGE-2. Nature of the experiment: PGE-2 increase on UVR exposure: control, Retinol and Skin Therapeutic Composition 5 (FIG. 2). The class given is in vivo. The settings on record: in the presence of UVR. The source says:
FIG. 2 illustrates an implementation of the reduction and/or inhibition of skin inflammation as a result of topical application of Skin Therapeutic Composition 5.
A night serum may be prepare including Skin Therapeutic Composition 5. FIG. 2 illustrates an implementation of the reduction and/or inhibition of skin inflammation as a result of topical application of Skin Therapeutic Composition 5. […] Skin Therapeutic 5 encourages collagen growth and inhibits the overproduction of PGE-2 when exposed to UVR.

Consider `CC1=C(/C=C/C(C)=C/C=C/C(C)=C/CO)C(C)(C)CCC1` [Retinol], for which the PGE-2 change entry is “increase in PGE-2”.

The record behind these values is patent publication US11298391B1, “Topical skin health improvement compositions and administrations thereof” (Lorenol Laboratories, Inc., priority 2017, dated 2022).
